Assay results from US20160022720A1, “COMPOSITIONS AND METHODS FOR TREATING DISEASE STATES ASSOCIATED WITH ACTIVATED T CELLS AND/OR B CELLS” (priority 2013, published 2016).
Entries after “also recorded” stand apart in the source; their conditions may differ.

Assays:
[1] = system: activated T cells (P14); assay type: cell-based, mice; conditions: for killing of activated T cells in vitro: agent itself, overnight culture
[2] = system: HLH; conditions: HLH patients, etoposide-based therapy, increased from approximately 0%; cited from earlier work
[3] = system: experimental autoimmune encephalitis; conditions: in vivo
[4] = system: LCMV-infected prf−/− mice; conditions: mouse, in vivo
[5] = system: reactivated memory T cells; assay: Depletion of memory T cells reactivated in vivo with liposomal GP33 peptide in WT mice; conditions: etoposide 100 mg/kg/dose x2, or etoposide 25 mg/kg/dose + nutlin 50 mg/kg x4
[6] = system: activated T cells; parameters: species or system mice; conditions: mouse
[7] = system: activated T cells; assay type: cell-based, mice; conditions: culture of activated T cells with agent

SMILES | potentiation of etoposide killing of activated T cells in vitro [1] | killing of activated T cells in vitro [1] | also measured
NC(=O)C1CCCc2c1[nH]c1ccc(Cl)cc21 (stereo not drawn) [Ex527] | enhance etoposide killing of activated T cells in vitro | – | –
COc1cc([C@@H]2c3cc4c(cc3[C@@H](O[C@@H]3O[C@@H]5CO[C@@H](C)O[C@H]5[C@H](O)[C@H]3O)[C@H]3COC(=O)[C@H]23)OCO4)cc(OC)c1O [etoposide] | – | – | long-term survival [2]: 55%; therapeutic effect in experimental autoimmune encephalitis [3]: highly therapeutic; inflammatory cytokines/disease-specific inflammatory markers [4]: decreased inflammatory cytokines/disease-specific inflammatory markers; pancytopenia [4]: alleviated pancytopenia; survival / rescue from HLH-like disease [4]: allowed survival; also recorded: rescues LCMV-infected prf−/− mice from HLH-like disease; depletion of reactivated memory T cells in vivo [5]: ablated
COc1ccc(C2=NC(c3ccc(Cl)cc3)C(c3ccc(Cl)cc3)N2C(=O)N2CCNC(=O)C2)c(OC(C)C)c1 (stereo not drawn) [nutlin] | dramatically shifts the etoposide:death, dose:response curve | – | potentiation of low dose etoposide for depletion of activated T cells in vivo [6]: potentiates etoposide immunomodulation in vivo
NC(=O)Nc1cc(-c2cccc(F)c2)sc1C(=O)N[C@H]1CCCNC1 [AZD7762] | potentiate etoposide killing of activated T cells in vitro | kill activated T cells in vitro; also recorded: selectively kill activated T cells | DNA damage (gammaH2AX) in activated T cells in vitro [7]: leads to accumulation of spontaneous DNA damage; also recorded: led to increasing DNA damage; potentiation of low dose etoposide for depletion of activated T cells in vivo [6]: strongly synergizes with etoposide in vivo
O=C1C(Cl)=C(N2CCOCC2)C(=O)N1c1ccc(Cl)c(Cl)c1 [Ri-1, 3-chloro-1-(3,4-dichlorophenyl)-4-morpholino-1H-pyrrole-2,5-dione] | substantial synergy with etoposide in vitro | kill activated T cells in vitro | –
CCOc1cc(/C=C2/C(=O)N(c3ccccc3)N=C2C)cc(Cl)c1OCC(=O)OC [Sj-172550] | enhance etoposide killing of activated T cells in vitro | – | –
C=CCn1c(=O)c2cnc(Nc3ccc(N4CCN(C)CC4)cc3)nc2n1-c1cccc(C(C)(C)O)n1 [MK-1775] | potentiate etoposide killing of activated T cells in vitro | selectively kill activated T cells | –
